Measured values as given in PMC10384010, “Chromatographic Data in Statistical Analysis of BBB Permeability Indices” (Membranes, 2023).

Legend:
[1] = Normal-phase TLC on silica gel 60 F254 (Rf); assay type: physicochemical; settings: water:methanol:acetonitrile 60:20:20, ammonium acetate pH 7.4
Description: The purity of the isolated substances was checked by TLC chromatography and densitometric scanning.
APIs were subjected to chromatographic in column (HPLC) and thin layer (TLC) formats. TLC chromatography was carried out on 20 cm × 20 cm glass plates by Merck, covered with silica gel and the addition of a fluorescent indicator. Merck TLC silica gel 60 F254 was used for the normal phase (NP). In the reverse phase (RP), RP-2 silanized plates were used (Merck TLC Silica gel 60 RP-2 F254, silanized). The mobile phase was buffered with ammonium acetate to pH 7.4 (LACH-NER, ammonium acetate).
Plates, after developing the chromatograms, were scanned using a densitometer (Desaga CD 60) with an analytical wavelength selected individually for drugs. The values of Rf (molecular descriptors: NP, RP) were determined.

[2] = Reversed-phase TLC on RP-2 silanized plates (Rf); assay type: physicochemical; settings: silica gel 60 RP-2 F254 silanized; water:methanol:acetonitrile 60:20:20, ammonium acetate pH 7.4
[3] = HPLC on IAM (immobilized artificial membrane) column, retention factor; assay type: physicochemical; settings: IAM.PC.DD.2 column; for k(IAM) retention factor: 10 mM phosphate buffer pH 7.4:acetonitrile 80:20; for logkIAM: logarithm of retention factor, phosphate buffer pH 7.4:acetonitrile 80:20
Description: Chromatographic data also came from an experiment with a HPLC IAM (immobilized artificial membrane) column (Regis Technologies Inc.: IAM.PC.DD.2, 10 µm; 4.6 mm × 10 mm). The column contains a standard membrane consisting of a phospholipid bilayer. Organic solvents (acetonitrile and methanol) and water (J.T. Baker HPLC) were used in HPLC. Sigma phosphate buffered saline tablets were used to prepare the phosphate buffer. The mobile phase was a mixture of 10 mM phosphate buffer at pH 7.4 and acetonitrile in the ratio of 80:20 (v/v) [35]. The mobile phase flow was set at 0.5 mL/min; detection was carried out with a UV–Vis detector. The obtained values of the retention factor (k IAM) were transformed into a logarithmic form and entered into the statistical analysis (descriptor: log k IAM).

[4] = entering the CNS / not entering the CNS; ref Drugbank [36]; cited from earlier work
[5] = plasma protein binding, given as fraction; ref Drugbank; cited from earlier work

Row | SMILES | NP (Rf from NP TLC plate) [1] | RP (Rf from RP-2 TLC plate) [2] | k(IAM) retention factor [3] | logkIAM [3] | CNS+/- [4] | PB (protein binding) [5]
1 | COc1cc(N)c(Cl)cc1C(=O)NC1CCN(CCCOc2ccc(F)cc2)CC1OC (stereo not drawn) [cisapride] | 0.64 | 0.65 | 57.99 | 1.76 | 1 | 0.975
2 | CC[C@H]1OC(=O)[C@H](C)[C@@H](O[C@H]2C[C@@](C)(OC)[C@@H](O)[C@H](C)O2)[C@H](C)[C@@H](O[C@@H]2O[C@H](C)C[C@H](N(C)C)[C@H]2O)[C@](C)(O)C[C@@H](C)CN(C)[C@H](C)[C@@H](O)[C@]1(C)O [azithromycin] | 0.63 | 0.24 | 0.06 | -1.20 | 0 | 0.29
3 | CC(=O)Oc1ccccc1C(=O)O [acetylsalicylic acid] | 0.89 | 0.98 | 0.03 | -1.52 | 1 | 0.995
4 | CN1CCC(=C2c3ccccc3C=Cc3ccccc32)CC1 [cyproheptadine] | 0.45 | 0.45 | 23.79 | 1.38 | 1 | 0.975
5 | CN1C(C(=O)Nc2ccccn2)=C(O)c2ccccc2S1(=O)=O [piroxicam] | 0.98 | 0.58 | 0.16 | -0.79 | 0 | 0.99
6 | CCOC(=O)[C@H](CCc1ccccc1)N[C@@H](C)C(=O)N1Cc2ccccc2C[C@H]1C(=O)O [quinapril] | 0.44 | 0.57 | 1.22 | 0.09 | 0 | 0.97
7 | CCC[C@H](N[C@@H](C)C(=O)N1[C@H](C(=O)O)C[C@@H]2CCCC[C@@H]21)C(=O)OCC [perindopril] | 0.47 | 0.57 | 0.18 | -0.76 | 0 | 0.15
8 | CCC(C)n1ncn(-c2ccc(N3CCN(c4ccc(OCC5COC(Cn6cncn6)(c6ccc(Cl)cc6Cl)O5)cc4)CC3)cc2)c1=O (stereo not drawn) [itraconazole] | 0.96 | 0.86 |  |  | 0 | 0.998
9 | C[C@H]1c2cccc(O)c2C(=O)C2=C(O)[C@]3(O)C(=O)C(C(N)=O)=C(O)[C@@H](N(C)C)[C@@H]3[C@@H](O)[C@@H]21 [doxycycline] | 0.06 | 0.08 | 1.76 | 0.24 | 0 | 0.9
10 | COc1ccnc(C[S+]([O-])c2nc3ccc(OC(F)F)cc3[nH]2)c1OC (stereo not drawn) [pantoprazole] | 0.93 | 0.85 | 2.19 | 0.34 | 0 | 0.98
11 | COC(=O)[C@@H]1CC2=CC(=O)CC[C@]2(C)[C@@]23O[C@@H]2C[C@@]2(C)[C@@H](CC[C@@]24CCC(=O)O4)[C@H]13 [eplerenone] | 0.94 | 0.84 | 1.54 | 0.19 | 1 | 0.5
12 | Cc1ccc(S(=O)(=O)NC(=O)NN2CC3CCCC3C2)cc1 (stereo not drawn) [gliclazide] | 0.95 | 0.83 | 0.28 | -0.55 | 1 | 0.94
13 | CN/C(=N/CCSCc1nc[nH]c1C)NC#N [cimetidine] | 0.64 | 0.88 | 0.26 | -0.58 | 0 | 0.17
14 | NC(=O)N1c2ccccc2CC(=O)c2ccccc21 [oxcarbamazepine] | 0.91 | 0.91 |  |  | 1 | 0.4
15 | CC(C)(C)NC[C@H](O)COc1nsnc1N1CCOCC1 [timolol] | 0.34 | 0.97 |  |  | 0 | 0.1
16 | CN(C)CCCN1c2ccccc2Sc2ccccc21 [promazine] | 0.39 | 0.51 | 0.10 | -1.02 | 1 | 0.94
17 | CN1C(=O)CC(=O)N(c2ccccc2)c2cc(Cl)ccc21 [clobazam] | 0.95 | 0.79 | 2.58 | 0.41 | 1 | 0.85
18 | Fc1ccc([C@@H]2CCNC[C@H]2COc2ccc3c(c2)OCO3)cc1 [paroxetine] | 0.55 | 0.6 | 115.77 | 2.06 | 1 | 0.94
19 | Cc1ccc(-c2cc(C(F)(F)F)nn2-c2ccc(S(N)(=O)=O)cc2)cc1 [celecoxib] | 0.98 | 0.75 | 50.01 | 1.70 | 1 | 0.97
20 | O=C(c1ccccc1)c1ccc2n1CCC2C(=O)O (stereo not drawn) [ketorolac] | 0.92 | 0.96 |  |  | 1 | 0.99
21 | OCCN1CCN(CCC=C2c3ccccc3Sc3ccc(C(F)(F)F)cc32)CC1 [flupenthixol] | 0.51 | 0.66 | 51.21 | 1.71 | 1 | 0.95
22 | CN1CCC(=C2c3ccccc3CC(=O)c3sccc32)CC1 [ketotifen] | 0.34 | 0.75 | 22.04 | 1.34 | 1 | 0.75
23 | CO/N=C(\C(=O)N[C@@H]1C(=O)N2C(C(=O)O)=C(COC(N)=O)CS[C@H]12)c1ccco1 [cefuroxime] | 0.97 | 0.88 | 1.69 | 0.23 | 0 | 0.5
24 | Clc1cccc(Cl)c1N=C1NCCN1 [clonidine] | 0.49 | 0.73 | 2.83 | 0.45 | 1 | 0.3
25 | O=C1CN=C(c2ccccn2)c2cc(Br)ccc2N1 [bromazepam] | 0.87 | 0.83 | 2.21 | 0.34 | 1 | 0.7
26 | CCOC(=O)C1=C(C)NC(C)=C(C(=O)OC)C1c1cccc([N+](=O)[O-])c1 (stereo not drawn) [nitrendipine] | 0.97 | 0.86 |  |  | 0 | 0.99
27 | CC[C@@H](C(N)=O)N1CCCC1=O [levetiracetam] | 0.92 | 0.92 |  |  | 1 | 0.1
